{"source": "patent US20070265301A1", "about": "“Dpp-IV Inhibitors” (priority 2004, published 2007)", "target": "T1, DPP-IV (Homo sapiens, UniProt P27487)", "T1 construct": "Soluble human DPP-IV lacking the transmembrane anchor (Gly31-Pro766); Pre-Pro-alpha-mating factor leader (secretion signal) (N, cleaved yes); made in house", "T1 sequence (P27487 31-766)": "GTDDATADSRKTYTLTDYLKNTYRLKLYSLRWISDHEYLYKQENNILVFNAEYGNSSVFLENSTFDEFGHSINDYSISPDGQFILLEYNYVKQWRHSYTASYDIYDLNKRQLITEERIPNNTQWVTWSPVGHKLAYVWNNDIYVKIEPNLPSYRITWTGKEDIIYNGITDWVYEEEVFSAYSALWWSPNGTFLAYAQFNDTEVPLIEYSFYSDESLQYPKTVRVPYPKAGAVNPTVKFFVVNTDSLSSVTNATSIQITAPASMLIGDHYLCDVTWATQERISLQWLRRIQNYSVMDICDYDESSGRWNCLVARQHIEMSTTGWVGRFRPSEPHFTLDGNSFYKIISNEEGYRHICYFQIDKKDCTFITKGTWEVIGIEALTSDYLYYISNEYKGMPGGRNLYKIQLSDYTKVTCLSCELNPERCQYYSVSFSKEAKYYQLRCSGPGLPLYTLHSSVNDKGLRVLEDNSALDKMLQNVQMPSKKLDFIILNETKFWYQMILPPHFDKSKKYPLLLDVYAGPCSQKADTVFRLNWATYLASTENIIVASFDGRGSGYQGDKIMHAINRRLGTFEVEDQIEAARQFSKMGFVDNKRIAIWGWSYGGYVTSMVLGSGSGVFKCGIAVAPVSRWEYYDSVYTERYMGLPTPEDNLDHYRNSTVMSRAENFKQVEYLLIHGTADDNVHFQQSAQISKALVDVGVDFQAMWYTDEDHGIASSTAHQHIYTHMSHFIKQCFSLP", "test": "Continuous fluorimetric assay of DPP-IV peptidase activity (Gly-Pro-AMC cleavage)", "assay_type": "biochemical", "conditions": "50 pM DPP-IV, 16 μM Gly-Pro-AMC, pH 7.4, 25° C., 1% DMSO; values grouped in 3 classes; read-out: IC50 for inhibition of DPP-IV peptidase activity", "description": "Inhibition of DPP-IV peptidase activity was monitored with a continuous fluorimetric assay. This assay is based on the cleavage of the substrate Gly-Pro-AMC (Bachem) by DPP-IV, releasing free AMC. The assay is carried out in 96-well microtiterplates. In a total volume of 100 μL, compounds are preincubated with 50 pM DPP-IV employing a buffer containing 10 mM Hepes, 150 mM NaCl, 0.005% Tween 20 (pH 7.4). The reaction is started by the addition of 16 μM substrate and the fluorescence of liberated AMC is detected for 10 minutes at 25° C. with a fluorescence reader (BMG-Fluostar; BMG-Technologies) using an excitation wavelength of 370 nm and an emission wavelength of 450 nm. The final concentration of DMSO is 1%. The inhibitory potential of the compounds were determined.\nSoluble human DPP-IV lacking the transmembrane anchor (Gly31-Pro766) was expressed in a recombinant YEAST-strain as Pre-Pro-alpha-mating fusion. The secreted product (rhuDPP-IV-Gly31-Pro766) was purified from fermentation broth (>90% purity).\nIn the table are listed the IC50 values for inhibition of DPP-IV peptidase activity determined in assays as described above.", "note": "Where a name gives a salt, the structure may show the parent alone.", "data": [{"molecule": "N[C@@H](CC(=O)N1Cc2ccccc2C[C@H]1CNS(=O)(=O)C1CC1)Cc1ccccc1F", "note": "[Example 9, Cyclopropanesulfonic acid {2-[(3R)-3-amino-4-(2-fluoro-phenyl)-butyryl]-1,2,3,4-tetrahydro-isoquinolin-(3S)-3-ylmethyl-amide, trifluoroacetate salt]", "values": [{"measurement": "IC50", "result": "≤ 100", "unit": "nM"}]}, {"molecule": "CS(=O)(=O)NC[C@@H]1Cc2ccccc2CN1C(=O)C[C@H](N)Cc1ccccc1F", "note": "[Example 8, N-{2-[(3R)-3-Amino-4-[2-fluoro-phenyl)-butyryl]-1,2,3,4-tetrahydro-isoquinolin-(3S)-3-ylmethyl}-methanesulfonamide, trifluoroacetate salt]", "values": [{"measurement": "IC50", "result": "≤ 100", "unit": "nM"}]}, {"molecule": "N[C@@H](CC(=O)N1c2ccccc2CC1COCc1ccccc1)Cc1ccccc1F", "note": "(mixture of isomers) [Example 13, (3R)-3-Amino-1-benzyloxymethyl-2,3-dihydro-indo-1-yl)-4-(2-fluorophenyl)-butan-1-one trifluoroacetate salt]", "values": [{"measurement": "IC50", "result": "1000 to 2000", "unit": "nM"}]}, {"molecule": "N[C@@H](CC(=O)N1Cc2ccccc2C[C@H]1CNC(=O)C1(O)CC1)Cc1ccccc1F", "note": "[Example 2, 1-Hydroxy-cyclopropanecarboxylic acid {2-[(3R)-3-amino-4-(2-fluoro-phenyl)-butyryl]-1,2,3,4-tetrahydro-isoquinolin-(3S)-3-ylmethyl}-amide, trifluoroacetate salt]", "values": [{"measurement": "IC50", "result": "101 to 1000", "unit": "nM"}]}, {"molecule": "Nc1nc(C(=O)NC[C@@H]2Cc3ccccc3CN2C(=O)C[C@H](N)Cc2ccccc2F)n[nH]1", "note": "[Example 6, 5-Amino-1H-[1,2,4]triazole-3-carboxylic acid-{2-[(3R)-3-amino-4-(2-fluoro-phenyl)-butyryl]-1,2,3,4-tetrahydro-isoquinolin-(3S)-3-ylmethyl-amide, trifluoroacetate salt]", "values": [{"measurement": "IC50", "result": "≤ 100", "unit": "nM"}]}, {"molecule": "N[C@@H](CC(=O)N1Cc2ccccc2C[C@H]1CNC(=O)CO)Cc1ccccc1F", "note": "[Example 3, N-{2-[(3R)-3-Amino-4-(2-fluoro-phenyl)-butyryl-1,2,3,4-tetrahydroisoquinolin-(3S)-3-ylmethyl}-2-hydroxy-acetamide, trifluoroacetate salt]", "values": [{"measurement": "IC50", "result": "101 to 1000", "unit": "nM"}]}, {"molecule": "N[C@@H](CC(=O)N1Cc2ccccc2C[C@H]1CNS(=O)(=O)C1CC1)Cc1cccc(Cl)c1", "note": "[Example 10, Cyclopropanesulfonic acid {2-[(3R)-3-amino-4-(3-chloro-phenyl)-butyryl]-1,2,3,4-tetrahydro-isoquinolin-(3S)-3-ylmethyl]-amide, trifluoroacetate salt]", "values": [{"measurement": "IC50", "result": "≤ 100", "unit": "nM"}]}, {"molecule": "CN(C)C[C@@H]1Cc2ccccc2CN1C(=O)C[C@H](N)Cc1ccccc1F", "note": "[Example 7, (3R)-3-Amino-1-(3S)-3-(3-dimethylaminomethyl-3,4-dihydro-1H-isoquinolin-2-yl)-4-(2-fluorophenyl)-butan-1-one, trifluoroacetate salt]", "values": [{"measurement": "IC50", "result": "1000 to 2000", "unit": "nM"}]}, {"molecule": "N[C@@H](CC(=O)N1Cc2ccccc2C[C@H]1CNC(=O)C1CC1)Cc1ccccc1F", "note": "[Example 1, Cyclopropanecarboxylic acid {2-[(3R)-3-amino-4-(2-fluoro-phenyl)-butyryl]-1,2,3,4-tetrahydro-isoquinolin-(3S)-3-ylmethyl]-amide, trifluoroacetate salt]", "values": [{"measurement": "IC50", "result": "101 to 1000", "unit": "nM"}]}, {"molecule": "Cc1cc(C(=O)NC[C@@H]2Cc3ccccc3CN2C(=O)C[C@H](N)Cc2ccccc2F)no1", "note": "[Example 5, 5-Methyl-isoxazole-3-carboxylic acid-{2-[(3R)-3-amino-4-(2-fluoro-phenyl)-butyryl]-1,2,3,4-tetrahydro-isoquinolin-(3S)-3-ylmethyl}-amide, trifluoroacetate salt]", "values": [{"measurement": "IC50", "result": "≤ 100", "unit": "nM"}]}, {"molecule": "N[C@@H](CC(=O)N1Cc2ccccc2CC1COCc1ccccc1)Cc1ccccc1F", "note": "(stereo partly drawn) [Example 14, (3R)-3-Amino-1-benzyloxymethyl-3,4-dihydro-1H-isoquinolin-2-yl)-4-(2-fluorophenyl)-butan-1-one, trifluoroacetate salt]", "values": [{"measurement": "IC50", "result": "≤ 100", "unit": "nM"}]}, {"molecule": "N[C@@H](CC(=O)N1Cc2ccccc2C[C@H]1COc1cccc(F)c1)Cc1ccccc1F", "note": "[Example 12, trifluoroacetate salt]", "values": [{"measurement": "IC50", "result": "≤ 100", "unit": "nM"}]}, {"molecule": "NC(CC(=O)N1Cc2ccccc2C[C@H]1CNS(=O)(=O)C1CC1)Cc1cc(F)ccc1F", "note": "(mixture of isomers) [Example 11, Cyclopropanesulfonic acid {2-[(3-amino-4-(2,5-difluoro-phenyl)-butyryl]-1,2,3,4-tetrahydro-isoquinolin-(3S)-3-ylmethyl}-amide, trifluoroacetate salt]", "values": [{"measurement": "IC50", "result": "≤ 100", "unit": "nM"}]}, {"molecule": "N[C@@H](CC(=O)N1Cc2ccccc2C[C@H]1CNC(=O)c1ccccc1)Cc1ccccc1F", "note": "[Example 4, N-{2-[(3R)-3-Amino-4-(2-fluoro-phenyl)-butyryl}-1,2,3,4-tetrahydro-isoquinolin-(3S)-3-ylmethyl}-benzamide, trifluoroacetate salt]", "values": [{"measurement": "IC50", "result": "≤ 100", "unit": "nM"}]}]}
